Values joined by “and” are separate entries in the source; they are usually repeats but may differ in a detail not shown here. Identical values can stand only once. Where a SMILES comes first, the peptide text is derived from it. Bridges are numbered along the chain shown (N, C = ends). The star is where a group is joined. DOTA = O=C(O)CN1CCN(CC(=O)O)CCN(CC(=O)*)CCN(CC(=O)O)CC1

Assay [1] deals with T1, ADAMTS4 in the aneurysmal aortic wall of ApoE−/− mice (Mus musculus, UniProt Q8BNJ2).
T1 construct: from tissue
T1 sequence (Q8BNJ2 209-833): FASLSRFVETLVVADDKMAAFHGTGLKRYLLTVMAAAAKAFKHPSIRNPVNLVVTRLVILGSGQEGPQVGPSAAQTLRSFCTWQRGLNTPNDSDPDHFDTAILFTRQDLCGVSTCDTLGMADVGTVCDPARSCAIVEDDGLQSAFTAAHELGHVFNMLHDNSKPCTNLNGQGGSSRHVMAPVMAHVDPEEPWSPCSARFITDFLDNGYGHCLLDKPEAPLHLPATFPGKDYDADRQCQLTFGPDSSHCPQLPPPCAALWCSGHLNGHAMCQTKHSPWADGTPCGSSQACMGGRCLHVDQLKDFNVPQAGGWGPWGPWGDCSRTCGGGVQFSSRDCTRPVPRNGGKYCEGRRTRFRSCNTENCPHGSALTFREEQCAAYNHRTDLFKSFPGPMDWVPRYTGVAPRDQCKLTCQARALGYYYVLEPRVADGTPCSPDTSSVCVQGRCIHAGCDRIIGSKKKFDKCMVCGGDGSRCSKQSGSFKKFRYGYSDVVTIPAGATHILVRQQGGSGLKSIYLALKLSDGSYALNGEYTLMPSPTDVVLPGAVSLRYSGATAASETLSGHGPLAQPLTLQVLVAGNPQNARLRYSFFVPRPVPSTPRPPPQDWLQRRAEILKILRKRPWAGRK
The assay is described as follows: In vivo MRI, cross-sectional study (2 and 4 weeks AngII, sham). Conditions: for CNR after administration, individual animals: one line per mouse. As for the experimental part:
All procedures and animal maintenance were performed according to the guidelines and regulations of the Federation of Laboratory Animal Science Associations (FELASA) and the local Guidelines and Provisions for Implementation of the Animal Welfare Act. The animal studies were approved by the local authorities (Lageso Berlin.) Mice were obtained from the Research Institute of Experimental Medicine at the Charité Berlin and maintained under barrier conditions, including a dark/light cycle of 12 h, an ambient temperature of 20 °C, and a humidity of 45%. A standard laboratory diet and water were provided ad libitum. For aneurysm induction, male 8-week-old apolipoprotein-E knockout (ApoE^−/−) (B6.129P2-ApoE^tm1Unc/J) mice underwent implantation of osmotic minipumps (Alzet model 2004, Durect Corp). Osmotic minipumps were implanted subcutaneously in the dorsal neck region and continuously delivered angiotensin II (AngII, Merck KGaA, Darmstadt, Germany) (1000 ng/kg/min) for up to 28 days (n = 32). Sham-operated mice (n = 10) served as the control group, receiving saline for 28 days instead of AngII via the osmotic minipumps.
For the cross-sectional study, MR imaging was performed after two and 4 weeks of AngII-infusion (n = 10 per group). […]
MR imaging was performed using a clinical 3 T Siemens system (Biograph, Siemens Healthcare Solutions, Erlangen, Germany). […] Following anesthesia injection, the animals were positioned in a prone position, and body temperature (37 °C) was monitored using an MR-compatible heating system (Model 1025, SA Instruments Inc, Stony Brook, NY) to avoid rapid cooling. […]
Analysis of resulting MR images was performed using OsiriX (version 7.1, OsiriX Foundation, Bernex, Switzerland). […] In order to assess the signal intensities, regions of interest (ROIs) were measured as areas of signal enhancement, which were co-localized with areas of aneurysmal-aortic tissue. For these areas, the CNR was calculated using the following formula: CNR = (Combined vessel-wall and aneurysmal-aortic-tissue-signal − blood-signal)/standard-deviation-signal (noise). […]

Assay [2] has as its target T2, ADAMTS4 in the aortic wall of ApoE−/− mice (Mus musculus, UniProt Q8BNJ2).
T2 construct: from tissue
T2 sequence (Q8BNJ2 209-833): T1 sequence (Q8BNJ2 209-833)
Description: LA-ICP-MS spatial localization of Gd in the aortic wall. The class given is in vivo. Particulars: 10 µm cryosections, n = 3 per time point. As for the experimental part: Aortic tissues were cut into 10 µm cryosections at −20 °C and mounted on SuperFrost Plus adhesion slides (Thermo Scientific, Waltham, MA, USA). Laser ablation inductively coupled plasma mass spectrometry (LA-ICP-MS) analysis was performed on a commercial LA system (NWR-213, ESI, Bozeman, MT, USA) equipped with a two-volume sample chamber coupled to a sector field ICP-MS (Element XR, Thermo Fisher Scientific, Bremen, Germany) (Supplementary Table 6).
Helium was used as the carrier gas, and argon was added before reaching the torch using a Y-piece (Supplementary Table 7). The ICP-MS was tuned for maximum ion intensity and good signal stability (RSD < 5%), keeping the oxide ratio (ThO/Th) below 1% during the continuous ablation of a microscopic glass slide. Matrix-matched agarose gel standards cast on glass slides were used for drift control and calibration. These standards contain Gd concentrations between 26.6 pg mm^−2 and 600.1 pg mm^−2. Averaged intensities of six line-scans per standard were used for calibration. Data visualization was done in Origin 2022 (OriginLab Corporation, Northampton, MA).

With `N=C(N)NCCC[C@@H]1NC(=O)[C@H](CCCNC(=N)N)NC(=O)[C@H](CO)NC(=O)[C@@H](N)CSSC[C@@H](C(=O)N[C@@H](CO)C(=O)NCC(=O)NCC(=O)N[C@@H](CO)C(=O)NCC(=O)NCC(=O)N[C@@H](CCCCNC(=O)CN2CCN(CC(=O)O)CCN(CC(=O)O)CCN(CC(=O)O)CC2)C(=O)NCC(N)=O)NC(=O)CNC1=O` (Gd complex, metal not drawn) [ADAMTS4-specific probe] (H-CSRRGCSGGSGGK(DOTA)G-NH2; disulfide 1-6), the “CNR after administration, individual animals” value in assay [1] (4 weeks AngII (4w)) was 13.92 and 11.1 and 12.72 and 12.01 and 12.59 and 22.52 and 20.4 and 10.53 and 14.06 and 16.11; in assay [1] (sham (s)) it was 6.04 and 7.8 and 7.62 and 6.96 and 7.76 and 7 and 7.77 and 7.23 and 7.52. Besides, the “CNR of the mice analysed by ICP-MS (Figure 7a)” value in assay [1] (individual mice, n = 7) is 9.44 and 11.51 and 11.44 and 12.92 and 6.96 and 7.76 and 7.00. In assay [2], the “colocalization of gadolinium with areas positive for ADAMTS4” value is given as “strong colocalization”.
